# Test results reported in PubChem BioAssay (NCI).
#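 Test compounds were applied to cells in 96-well plates for 48 hours at 5 doses. GI50 = concentration required for 50% inhibition of growth. Definition used: TGI = concentration required for complete inhibition of growth.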
# Legend:
# Assay in all cases: DTP human tumour cell line panel, 48 h
# [1] = system: NCI/ADR-RES ovarian
# [2] = system: KM12 colon
# [3] = system: U251 CNS
# [4] = system: SK-MEL-2 melanoma
# [5] = system: T-47D breast
# [6] = system: HT29 colon
# [7] = system: DU-145 prostate
# [8] = system: SF-539 CNS
# [9] = system: HOP-62 NSCLC
# [10] = system: SW-620 colon
SMILES,GI50 [1],TGI [1],GI50 [2],TGI [2],GI50 [3],TGI [3],GI50 [4],TGI [4],GI50 [5],TGI [5],GI50 [6],TGI [6],GI50 [7],TGI [7],GI50 [8],TGI [8],GI50 [9],TGI [9],TGI [10],GI50 [10]
Cc1ccc(-c2nc(C#N)c(S(=O)(=O)n3nc(C)cc3N)o2)cc1,19 µM,78.5 µM,16.5 µM,33.8 µM,13.6 µM,26.5 µM,15 µM,32.3 µM,2.27 µM,5.76 µM,2.37 µM,5.45 µM,7.8 µM,20.2 µM,5.07 µM,17.4 µM,17.7 µM,35.1 µM,–,–
CCOC1=C2C(=O)OC(=O)C2C2CCCCC2=C1 (stereo unspecified),–,–,–,> 100 µM,–,> 100 µM,–,> 100 µM,–,–,–,> 100 µM,–,–,–,> 100 µM,–,> 100 µM,> 100 µM,–
Clc1ccc(N=Nc2nc3ccccc3nc2N=Nc2ccc(Cl)cc2Cl)c(Cl)c1,–,–,–,> 100 µM,–,> 100 µM,–,> 100 µM,–,–,–,> 100 µM,–,–,–,> 100 µM,–,> 100 µM,> 100 µM,–
CC1OC(n2c3ccccc3c3c4c(c5c6ccccc6[nH]c5c32)C(=O)N(CCN[C@@H]2CCC[C@H]2N)C4=O)CC(O)C1O (stereo partly specified),> 50 µM,> 50 µM,1.35 µM,6.11 µM,1.05 µM,5.74 µM,3.68 µM,11.8 µM,1.04 µM,6.46 µM,1.33 µM,5.46 µM,2.22 µM,8.31 µM,–,–,1.74 µM,7.24 µM,5.71 µM,1.05 µM
Cc1cc2c(C)nn(Cc3ccccc3)c2c(C(N)=O)c1C,–,–,–,> 100 µM,–,> 100 µM,–,> 100 µM,–,–,–,> 100 µM,–,–,–,> 100 µM,–,> 100 µM,> 100 µM,–
c1ccc(C(c2ccccc2)c2cccnc2)cc1,–,–,–,> 100 µM,–,> 100 µM,–,> 100 µM,–,–,–,> 100 µM,–,–,–,> 100 µM,–,> 100 µM,> 100 µM,–
Cc1ccc(SSc2ccc(C)cc2C(=O)O)c(C(=O)O)c1,–,–,–,> 100 µM,–,> 100 µM,–,> 100 µM,–,–,–,> 100 µM,–,–,–,> 100 µM,–,> 100 µM,> 100 µM,–
CCn1cc(C(=O)N/N=C/c2ccccc2)c(=O)c2cc(F)c(N3CCNC(C)C3)c(F)c21 (stereo unspecified),1.76 µM,3.46 µM,–,–,–,–,–,–,–,–,–,–,1.88 µM,3.3 µM,1.7 µM,3.11 µM,–,–,3.31 µM,1.76 µM
COC(=O)/C(=N\NC(=O)C[N+](C)(C)C)C(C(=O)OC)C(=O)C(=O)Nc1ccccc1C(N)=O (stereo unspecified),–,–,–,> 100 µM,–,> 100 µM,–,> 100 µM,–,–,–,> 100 µM,–,–,–,> 100 µM,–,> 100 µM,> 100 µM,–
COc1ccc(-c2nc(/C=N/Nc3cc(C)nc4ccc(Cl)cc34)c(C)o2)cc1,1.97 µM,3.95 µM,1.79 µM,3.49 µM,1.78 µM,3.28 µM,10.9 µM,24.1 µM,1.71 µM,3.56 µM,–,–,1.75 µM,3.25 µM,1.97 µM,3.45 µM,1.64 µM,3.12 µM,3.2 µM,1.6 µM
C1COCCN1.C1COCCN1.NC1CCCCC1N.[Cl-].[Pt+2] (stereo unspecified),–,–,> 100 µM,> 100 µM,> 100 µM,> 100 µM,> 100 µM,> 100 µM,–,–,> 100 µM,> 100 µM,–,–,> 100 µM,> 100 µM,> 100 µM,> 100 µM,> 100 µM,> 100 µM
CN1c2ccccc2N(C(=O)c2ccc(Cl)cc2)C(CC(=O)O)c2cccn21 (stereo unspecified),–,–,–,> 100 µM,–,–,–,> 100 µM,–,–,–,> 100 µM,–,–,–,> 100 µM,–,> 100 µM,> 100 µM,–
Cc1oc2c(C)c3oc(=O)cc(C)c3cc2c1CN1C(=O)C2OCCOCCOCCOCCOCCO[C@H]2C1=O (stereo partly specified),–,–,–,> 100 µM,–,> 100 µM,–,–,–,–,–,> 100 µM,–,–,–,> 100 µM,–,> 100 µM,> 100 µM,–
CC1OC(OC2C[C@](O)(C(=O)CF)Cc3c(O)c4c(c(O)c32)C(=O)c2ccccc2C4=O)CC(N)C1O (stereo partly specified),–,–,–,0.239 µM,–,0.394 µM,–,0.512 µM,–,0.151 µM,–,0.0905 µM,–,1.14 µM,–,1.33 µM,–,0.0462 µM,0.741 µM,–
CCN(CC)CCOc1ccc(CCc2cc(OC)c(OC)c(OC)c2)cc1,–,–,–,> 100 µM,–,> 100 µM,–,–,–,–,–,39 µM,–,–,–,> 100 µM,–,81.4 µM,46.8 µM,–
N.N.N.N.N.[Cl-].[Co+3].c1ccc(-c2nn[n-]n2)cc1,–,–,> 100 µM,> 100 µM,> 100 µM,> 100 µM,> 100 µM,> 100 µM,–,–,> 100 µM,> 100 µM,–,–,> 100 µM,> 100 µM,> 100 µM,> 100 µM,> 100 µM,> 100 µM
OCC(O)C(Cl)CCl (stereo unspecified),–,> 100 µM,–,> 100 µM,–,> 100 µM,–,–,–,> 100 µM,–,> 100 µM,–,> 100 µM,–,> 100 µM,–,> 100 µM,> 100 µM,–
O=C1c2cccc(NCCN=Cc3cc([N+](=O)[O-])ccc3O)c2C(=O)c2c(NCCN=Cc3cc([N+](=O)[O-])ccc3O)cccc21,> 100 µM,> 100 µM,2.8 µM,> 100 µM,2.65 µM,19.7 µM,20.5 µM,96.4 µM,9.38 µM,> 100 µM,1.26 µM,> 100 µM,3.94 µM,58.1 µM,–,–,3.37 µM,59.8 µM,> 100 µM,1.49 µM
